Laboratory results published in article PMC8130918 (PLoS Pathogens, 2021).
“And” between values parts separate entries of the source, which are not always exact repeats. Equal values may be shown once.

Legend:
[1] = target: RSV MTase-CTD (Human respiratory syncytial virus A, UniProt P28887); assay: MTase activity inhibition, filter-binding assay (3H-methyl transfer from SAM to GpppG-RSV9 RNA); format: biochemical; settings: for IC50: 25 nM RSV MTase-CTD, 0.7 μM GpppG-RSV9 RNA, 2 μM SAM, pH 7.5, 30°C, Hill slope curve-fitting
RSV MTase-CTD, sequence (P28887 1755-2165): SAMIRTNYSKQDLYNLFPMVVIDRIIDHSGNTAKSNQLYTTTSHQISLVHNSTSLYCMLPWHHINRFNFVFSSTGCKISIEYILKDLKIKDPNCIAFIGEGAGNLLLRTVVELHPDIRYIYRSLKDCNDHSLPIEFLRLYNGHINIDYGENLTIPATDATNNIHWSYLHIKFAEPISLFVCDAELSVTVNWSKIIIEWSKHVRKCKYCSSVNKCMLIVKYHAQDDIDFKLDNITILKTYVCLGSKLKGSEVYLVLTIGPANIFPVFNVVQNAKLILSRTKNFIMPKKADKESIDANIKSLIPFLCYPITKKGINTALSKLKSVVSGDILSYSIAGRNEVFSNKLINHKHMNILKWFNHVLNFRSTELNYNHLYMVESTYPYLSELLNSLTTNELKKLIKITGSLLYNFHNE

[2] = target: RSV L-P complex (Human respiratory syncytial virus A, UniProt P28887); assay: MTase activity inhibition, filter-binding assay with the RSV L-P complex; format: biochemical, human RSV (strain A2); settings: 60 nM RSV L-P complex, 1.8 μM GpppG-RSV9 RNA, 0.17 μM SAM and 0.8 μM 3H-SAM, pH 7.5, 30°C
RSV L-P complex, sequence (P03421 whole entry): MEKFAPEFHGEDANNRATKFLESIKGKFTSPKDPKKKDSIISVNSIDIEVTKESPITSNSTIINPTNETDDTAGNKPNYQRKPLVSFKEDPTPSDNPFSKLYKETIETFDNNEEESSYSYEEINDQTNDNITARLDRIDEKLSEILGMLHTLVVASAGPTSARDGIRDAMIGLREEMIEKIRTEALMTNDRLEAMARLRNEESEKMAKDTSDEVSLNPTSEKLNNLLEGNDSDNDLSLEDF
RSV L-P complex, sequence (P28887 whole entry): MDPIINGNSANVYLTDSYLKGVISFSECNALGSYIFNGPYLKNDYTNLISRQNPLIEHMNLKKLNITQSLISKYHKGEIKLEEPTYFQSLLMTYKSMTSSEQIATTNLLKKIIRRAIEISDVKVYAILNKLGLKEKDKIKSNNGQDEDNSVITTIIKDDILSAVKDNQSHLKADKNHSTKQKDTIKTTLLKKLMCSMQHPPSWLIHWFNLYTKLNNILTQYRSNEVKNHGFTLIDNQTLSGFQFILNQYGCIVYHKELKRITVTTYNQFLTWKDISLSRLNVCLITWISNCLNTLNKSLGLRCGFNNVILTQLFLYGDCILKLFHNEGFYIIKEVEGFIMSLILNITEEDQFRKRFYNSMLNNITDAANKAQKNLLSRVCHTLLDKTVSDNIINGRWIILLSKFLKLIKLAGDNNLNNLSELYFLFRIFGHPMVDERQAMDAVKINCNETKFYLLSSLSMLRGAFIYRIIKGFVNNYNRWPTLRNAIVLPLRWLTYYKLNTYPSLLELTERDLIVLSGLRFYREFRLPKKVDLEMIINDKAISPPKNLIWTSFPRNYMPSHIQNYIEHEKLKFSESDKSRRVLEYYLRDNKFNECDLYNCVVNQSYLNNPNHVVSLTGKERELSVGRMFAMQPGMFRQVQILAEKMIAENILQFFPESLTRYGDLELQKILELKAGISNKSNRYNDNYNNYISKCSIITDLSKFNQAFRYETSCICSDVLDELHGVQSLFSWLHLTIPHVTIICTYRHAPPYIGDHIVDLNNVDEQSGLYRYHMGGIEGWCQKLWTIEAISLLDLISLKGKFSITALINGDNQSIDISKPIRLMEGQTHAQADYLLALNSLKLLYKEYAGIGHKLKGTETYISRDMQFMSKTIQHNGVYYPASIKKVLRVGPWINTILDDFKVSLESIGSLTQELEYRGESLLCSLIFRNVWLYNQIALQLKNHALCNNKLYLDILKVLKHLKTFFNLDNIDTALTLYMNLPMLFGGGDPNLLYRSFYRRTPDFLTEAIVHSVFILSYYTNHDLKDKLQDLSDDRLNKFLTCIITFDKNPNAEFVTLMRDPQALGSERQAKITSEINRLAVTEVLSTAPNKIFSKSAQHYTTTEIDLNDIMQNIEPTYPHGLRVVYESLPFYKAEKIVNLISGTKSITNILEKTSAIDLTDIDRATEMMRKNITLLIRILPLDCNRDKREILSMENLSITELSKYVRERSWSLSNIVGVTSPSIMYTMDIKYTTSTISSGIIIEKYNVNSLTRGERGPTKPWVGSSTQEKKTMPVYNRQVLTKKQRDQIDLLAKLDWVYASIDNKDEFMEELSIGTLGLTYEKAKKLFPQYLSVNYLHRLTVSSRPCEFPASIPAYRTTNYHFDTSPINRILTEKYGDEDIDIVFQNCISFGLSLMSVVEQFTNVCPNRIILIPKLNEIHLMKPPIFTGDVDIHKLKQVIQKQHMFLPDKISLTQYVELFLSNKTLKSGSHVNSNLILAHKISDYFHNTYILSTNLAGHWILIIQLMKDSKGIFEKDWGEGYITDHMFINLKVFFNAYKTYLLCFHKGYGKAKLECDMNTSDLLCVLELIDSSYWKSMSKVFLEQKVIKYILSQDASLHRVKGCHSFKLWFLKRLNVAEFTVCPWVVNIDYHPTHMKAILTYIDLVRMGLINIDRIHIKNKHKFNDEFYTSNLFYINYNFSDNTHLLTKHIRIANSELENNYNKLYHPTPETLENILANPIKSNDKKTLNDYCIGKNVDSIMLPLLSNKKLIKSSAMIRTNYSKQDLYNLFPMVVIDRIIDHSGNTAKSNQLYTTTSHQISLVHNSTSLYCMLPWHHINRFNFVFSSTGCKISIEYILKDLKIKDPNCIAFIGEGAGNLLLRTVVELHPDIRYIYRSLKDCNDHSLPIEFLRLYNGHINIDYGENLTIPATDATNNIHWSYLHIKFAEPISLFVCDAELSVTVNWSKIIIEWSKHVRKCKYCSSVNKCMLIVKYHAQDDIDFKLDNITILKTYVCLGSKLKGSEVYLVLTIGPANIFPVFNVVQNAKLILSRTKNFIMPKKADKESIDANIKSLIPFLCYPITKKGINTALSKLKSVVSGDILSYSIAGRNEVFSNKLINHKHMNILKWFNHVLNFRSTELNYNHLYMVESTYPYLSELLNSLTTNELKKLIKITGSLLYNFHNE

[3] = tested on: VSV; settings: BHK cells, plaque assay; read-out: half maximal effective concentration (EC50), VSV replication; cited from earlier work
[4] = tested on: RSV; assay: Antiviral activity in cellular assay, replication of RSV in HeLa cells; format: cell-based, Respiratory syncytial virus; settings: before toxicity

Structure (SMILES)	inhibitory activity on RSV MTase-CTD compared with GpppG [1]	IC50 [2]	also measured
Nc1nc2c(ncn2[C@@H]2O[C@H](COP(=O)(O)OP(=O)(O)OP(=O)(O)OC[C@H]3O[C@@H](n4cnc5c(N)ncnc54)[C@H](O)[C@@H]3O)[C@@H](O)[C@H]2O)c(=O)[nH]1 [GpppA]	lower inhibitory activity	–	–
Nc1nc2c(ncn2[C@@H]2O[C@H](COP(=O)(O)OP(=O)(O)OP(=O)(O)OC[C@H]3O[C@@H](n4cnc5c(=O)[nH]c(N)nc54)[C@H](O)[C@@H]3O)[C@@H](O)[C@H]2O)c(=O)[nH]1 [GpppG]	–	–	inhibition of the activity of the RSV MTase-CTD ([1]; […], methylation of GpppG-RSV9 RNA by FBA, 50 µM): 50%
Nc1ncnc2c1ncn2[C@@H]1O[C@H](CSCC[C@H](N)C(=O)O)[C@@H](O)[C@H]1O [SAH, S-adenosyl homocysteine]	–	37.8 µM and ~37.8 µM	IC50 ([1]; 3 h): 24.7 µM and ~24.7 µM
Cn1c[n+]([C@@H]2O[C@H](COP(=O)(O)OP(=O)([O-])O)[C@@H](O)[C@H]2O)c2nc(N)[nH]c(=O)c21 [^mGDP]	lower inhibitory activity	–	–
C[n+]1cn(C2OC(COP(=O)([O-])OP(=O)(O)OP(=O)(O)OCC3OC(n4cnc5c(N)ncnc54)C(O)C3O)C(O)C2O)c2nc(N)[nH]c(=O)c21 (stereo not shown) [^mGpppA]	lower inhibitory activity	–	–
Nc1ncnc2c1ncn2[C@@H]1O[C@H](C[C@@H](N)CC[C@H](N)C(=O)O)[C@@H](O)[C@H]1O [sinefungin]	–	9.8 µM and ~9.8 µM	EC50 [3]: 220 µM; inhibition of replication of RSV [4]: did not show inhibition activity; IC50 [1]: 6.4 µM and ~6.4 µM
